Experimental data published in US10016519B2, “18F-tagged inhibitors of prostate specific membrane antigen (PSMA), their use as imaging agents and pharmaceutical agents for the treatment of prostate cancer” (DEUTSCHES KREBSFORSCHUNGSZENTRUM, priority 2014, dated 2018).

Legend:
PSMA = target: T1, PSMA (Homo sapiens, UniProt Q04609); experiment: Competitive cell binding assay (binding affinity); conditions: LNCaP cells, competition against 68Ga-labeled [Glu-urea-lys(Ahx)]2-HBED-CC radioligand, 0-5000 nM analyte
T1 construct: host or cells: LNCaP
T1 sequence (Q04609 whole entry): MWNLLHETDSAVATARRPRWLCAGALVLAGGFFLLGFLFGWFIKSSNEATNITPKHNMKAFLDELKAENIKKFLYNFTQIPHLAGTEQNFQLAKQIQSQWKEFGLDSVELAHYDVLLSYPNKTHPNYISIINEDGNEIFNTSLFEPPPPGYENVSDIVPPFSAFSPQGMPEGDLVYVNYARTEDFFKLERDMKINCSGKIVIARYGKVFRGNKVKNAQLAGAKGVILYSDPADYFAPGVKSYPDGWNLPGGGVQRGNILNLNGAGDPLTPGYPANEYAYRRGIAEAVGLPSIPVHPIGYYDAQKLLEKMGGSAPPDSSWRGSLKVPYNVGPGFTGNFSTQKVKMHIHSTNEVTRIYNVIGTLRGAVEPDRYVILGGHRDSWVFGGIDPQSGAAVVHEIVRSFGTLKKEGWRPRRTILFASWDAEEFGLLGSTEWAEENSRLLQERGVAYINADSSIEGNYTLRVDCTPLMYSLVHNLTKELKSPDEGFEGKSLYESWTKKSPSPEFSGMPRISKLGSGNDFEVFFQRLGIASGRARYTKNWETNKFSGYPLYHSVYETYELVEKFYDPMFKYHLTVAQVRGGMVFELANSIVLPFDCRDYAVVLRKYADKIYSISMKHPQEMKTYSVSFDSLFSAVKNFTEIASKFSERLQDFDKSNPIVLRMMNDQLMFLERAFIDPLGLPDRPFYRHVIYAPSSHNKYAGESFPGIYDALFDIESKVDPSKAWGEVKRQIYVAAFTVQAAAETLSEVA
Description: (§1) For binding studies and in vivo experiments LNCaP cells (metastatic lesion of human prostatic adenocarcinoma, ATCC CRL-1740) were cultured in RPMI medium supplemented with 10% fetal calf serum and Glutamax (PAA, Austria). During cell culture, cells were grown at 37° C. in an incubator with humidified air, equilibrated with 5% CO2. The cells were harvested using trypsin-ethylenediaminetetraacetic acid (trypsin-EDTA; 0.25% trypsin, 0.02% EDTA, all from PAA, Austria) and washed with PBS.
The competitive cell binding assay and internalization experiments were performed as described previously (Eder, M. et al., Bioconj. Chem 2012, 23, 688-697) Briefly, the respective cells (10^5 per well) were incubated with the radioligand (^68Ga-labeled [Glu-urea-lys(Ahx)]2-HBED-CC (Schafer, M. et al., EJNMMI Res. 2012; 2, 23) in the presence of 12 different concentrations of analyte (0-5000 nM, 100 μL/well). After incubation, washing was carried out using a multiscreen vacuum manifold (Millipore, Billerica, Mass.). Cell-bound radioactivity was measured using a gamma counter (Packard Cobra II, GMI, Minnesota, USA). The 50% inhibitory concentration (IC^50) was calculated by fitting the data using a nonlinear regression algorithm (GraphPad Software).
Experiments were performed three times. Reference is made to Table A below.

LNCaP cells = experiment: Specific cell uptake and internalization; assay type: cell-based, human; conditions: for Internalized fraction: (Internalized activity/total activity)*100, LNCaP cells; for Cell surface / Internalised: LNCaP cells, 30 nM 18F-labeled compound, 45 min, 37° C., specific (blocking with 500 μM PMPA), mean±SD n=3
Description: FIG. 8: Internalization of compounds PSMA1001/1002/1003. All compounds were labeled with ^18F, and their specific cell surface binding and internalization properties on LNCaP cells were investigated. Specific cell uptake was determined by blocking with 500 μM-PMPA. Values are expressed as % of applied radioactivity bound to 10^5 cells. Data are expressed as mean±SD (n=3).
as §1
To determine the specific cell uptake and internalization, 10^5 cells were seeded in poly-L-lysine coated 24-well cell culture plates 24 h before incubation. After washing, the cells were incubated with 30 nM of the radiolabeled compounds for 45 min at 37° C. Specific cellular uptake was determined by competitive blocking with 2-(phosphonomethyl)pentanedioic acid (500 μM final concentration, PMPA, Axxora, Loerrach, Germany). Cellular uptake was terminated by washing 3 times with 1 mL of ice-cold PBS. Cells were subsequently incubated twice with 0.5 mL glycine-HCl in PBS (50 mM, pH=2.8) for 5 min to remove the surface-bound fraction. The cells were washed with 1 mL of ice-cold PBS and lysed using 0.3 N NaOH (0.5 mL). The surface-bound and the internalized fractions were measured in a gamma counter. The cell uptake was calculated as percent of the initially added radioactivity bound to 10^5 cells [% ID/10^5 cells].

[1] = tested on: mice bearing LNCaP tumor xenografts; experiment: Dynamic microPET imaging; assay type: in vivo
Description: FIG. 9: PET imaging of PSMA-1001. Whole-body coronal microPET images of an athymic male nude mice bearing LNCaP tumor xenografts. The tumor-targeting efficacy and pharmacokinetic properties of ^18F-PSMA-1001 were evaluated by dynamic microPET scans. Approximately 15 MBq/mouse were injected. […] The values are expressed as mean SUV (standardized uptake values).
Whole-body coronal microPET images of an athymic male nude mice bearing LNCaP tumor xenografts. […] Approximately 15 MBq/mouse were injected. […] The values are expressed as mean SUV (standardized uptake values).
(§2) For in vivo experiments, 8 week old BALB/c nu/nu mice were subcutaneously inoculated into the right trunk with 5×10^6 LNCaP- or PC3-cells in 50% Matrigel. When the size of tumor was approximately 1 cm^3, the radiolabeled compound was injected via the tail vein (ca. 30 MBq, 60 pmol for μPET imaging; ca. 1 MBq, 60 pmol for organ distribution).
For the microPET studies, 10-25 MBq of the radiolabeled compounds in a volume of 0.15 mL (˜60 pmol) were injected via a lateral tail vein into mice bearing LNCaP tumor xenografts. The anesthetized animals (2% sevoflurane, Abbott, Wiesbaden, Germany) were placed in prone position into the Inveon small animal PET scanner (Siemens, Knoxville, Tenn., USA) to perform dynamic microPET scans and 20 min-static scans.

[2] = tested on: BALB/c nu/nu mice bearing LNCaP tumor; experiment: Organ distribution; assay type: in vivo; conditions: 1 h after injection, tail vein, 60 pmol, n=3
Description: as §2
The F-18 labeled compounds were injected via tail vein (1-2 MBq per mouse; 60 pmol). At 1 h after injection, the animals were sacrificed. Organs of interest were dissected, blotted dry, and weighed. The radioactivity was measured with a gamma counter (Packard Cobra II, GMI, Minnesota, USA) and calculated as % ID/g.

Organ distribution, Blood, Mean [2] [% ID/g]	Organ distribution, Brain, Mean [2] [% ID/g]	Organ distribution, Heart, Mean [2] [% ID/g]	Organ distribution, Kidney, Mean [2] [% ID/g]	Organ distribution, LNCaP Tumor, Mean [2] [% ID/g]	Organ distribution, Liver, Mean [2] [% ID/g]	Organ distribution, Lung, Mean [2] [% ID/g]	Organ distribution, Muscle, Mean [2] [% ID/g]	Organ distribution, Small intestine, Mean [2] [% ID/g]	Organ distribution, Spleen, Mean [2] [% ID/g]	Molecule	IC50 (PSMA) [nM]	Internalized fraction (LNCaP cells) [%]	Cell surface (LNCaP cells) [% ID/10^5 cells]	Internalised (LNCaP cells) [% ID/10^5 cells]	Tumor standardized uptake value (SUVmean,BW) ([1]; LNCaP tumor xenograft, time not stated)	Uptake in the kidneys (microPET) ([1]; LNCaP xenograft mice)	Uptake in the liver (microPET) ([1]; LNCaP xenograft mice)
										(Glu)-(Urea)-((D)-Lys)-(2-Naphthylalanine)-(4-(Aminomethyl)benzoic acid)-FN [PSMA-1003]	3	38	11.7 ± 1.2	7.1 ± 0.8			
										O=C(O)CCC(NC(=O)NC(CCCCNC(=O)C(Cc1ccc2ccccc2c1)NC(=O)c1ccc(CNC(=O)CO/N=C\C([18F])C(O)C(O)C(O)CO)cc1)C(=O)O)C(=O)O (stereo not shown) [PSMA-1005, (Glu)-(Urea)-(Lys)-(2Nal)-(Bn)-(Acetyl-FDG-Oxim)]	7	63	1.1 ± 0.5	0.7 ± 0.4			
										O=C(O)CC[C@H](NC(=O)N[C@@H](CCCCNC(=O)[C@H](Cc1ccc2ccccc2c1)NC(=O)[C@H]1CC[C@H](CNC(=O)c2ccc([18F])nc2)CC1)C(=O)O)C(=O)O [PSMA-1001, (Glu)-(Urea)-((D)-Lys)-(2-Naphthylalanine)-(4-(Aminomethyl)cyclohexanecarboxylic acid)-FN]	3	26	8.4 ± 1.9	2.9 ± 0.3	0.5	increasing uptake in the kidneys	high uptake in the liver
2.02	0.07	0.25	32.37	3.4	3.02	0.65	0.25	8.49	1.96	O=C(O)CC[C@H](NC(=O)N[C@@H](CCCCNC(=O)[C@H](Cc1ccc2ccccc2c1)NC(=O)c1ccc(CNC(=O)c2ccc([18F])nc2)cc1)C(=O)O)C(=O)O [PSMA-1003, (Glu)-(Urea)-((D)-Lys)-(2-Naphthylalanine)-(4-(Aminomethyl)benzoic acid)-FN]							
